Here are results for 14 compounds from patent publication US10123993B2, “Cyclic ureas as inhibitors of rock” (BRISTOL-MYERS SQUIBB COMPANY, priority 2015, dated 2018).

Counter-ions that a name gives are not always drawn. A value given as a limit tells only on which side of the number the result lay.

Chain of ROCK2 (O75116 whole entry, species assumed): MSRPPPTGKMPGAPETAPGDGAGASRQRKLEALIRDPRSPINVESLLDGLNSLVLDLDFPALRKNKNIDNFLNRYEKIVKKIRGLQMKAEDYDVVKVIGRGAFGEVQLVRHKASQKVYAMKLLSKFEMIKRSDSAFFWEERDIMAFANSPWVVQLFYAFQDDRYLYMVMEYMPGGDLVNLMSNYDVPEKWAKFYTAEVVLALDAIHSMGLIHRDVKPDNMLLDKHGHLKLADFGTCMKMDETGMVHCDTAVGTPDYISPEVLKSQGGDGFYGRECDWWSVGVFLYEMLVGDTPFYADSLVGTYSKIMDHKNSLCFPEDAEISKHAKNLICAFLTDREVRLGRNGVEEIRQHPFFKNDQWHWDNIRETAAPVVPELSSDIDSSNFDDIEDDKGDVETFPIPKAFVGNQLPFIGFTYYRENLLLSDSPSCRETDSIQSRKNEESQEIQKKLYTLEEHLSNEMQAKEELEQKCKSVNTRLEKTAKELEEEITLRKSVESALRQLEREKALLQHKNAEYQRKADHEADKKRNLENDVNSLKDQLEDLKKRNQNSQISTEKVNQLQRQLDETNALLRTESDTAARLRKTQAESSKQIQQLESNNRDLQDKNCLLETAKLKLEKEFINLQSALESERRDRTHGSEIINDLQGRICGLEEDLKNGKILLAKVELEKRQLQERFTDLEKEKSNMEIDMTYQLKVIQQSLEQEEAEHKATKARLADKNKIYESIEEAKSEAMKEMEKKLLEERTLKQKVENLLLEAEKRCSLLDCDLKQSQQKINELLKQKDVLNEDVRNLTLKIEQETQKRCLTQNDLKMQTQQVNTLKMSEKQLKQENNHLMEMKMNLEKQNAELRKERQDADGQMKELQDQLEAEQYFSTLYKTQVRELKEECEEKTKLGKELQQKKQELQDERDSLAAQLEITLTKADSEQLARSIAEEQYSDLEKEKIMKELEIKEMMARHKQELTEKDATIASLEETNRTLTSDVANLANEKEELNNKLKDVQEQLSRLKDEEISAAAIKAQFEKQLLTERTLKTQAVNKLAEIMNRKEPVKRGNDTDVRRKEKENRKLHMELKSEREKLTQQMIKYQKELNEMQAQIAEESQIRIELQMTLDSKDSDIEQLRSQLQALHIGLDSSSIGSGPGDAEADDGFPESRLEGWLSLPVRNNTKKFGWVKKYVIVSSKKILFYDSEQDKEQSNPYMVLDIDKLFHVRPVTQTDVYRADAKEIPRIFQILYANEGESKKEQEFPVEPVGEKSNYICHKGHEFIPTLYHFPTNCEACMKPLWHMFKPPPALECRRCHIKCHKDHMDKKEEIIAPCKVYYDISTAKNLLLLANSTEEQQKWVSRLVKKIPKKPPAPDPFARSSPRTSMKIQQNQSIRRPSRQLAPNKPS

The target in the test is ROCK2 (Homo sapiens, UniProt O75116). Briefly: ROCK2 kinase inhibition assay (Caliper LABCHIP, FITC peptide substrate). The format is biochemical. Particulars: 5 μM ATP, 1.5 μM peptide substrate; value ranges. In a few lines:
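Rho kinase with 5 μM ATP and 1.5 μM FITC-AHA-AKRRRLSSLRA-OH peptide in HEPES pH 7.5, 20 mM MgCl2, 0.015% Brij-35, 4 mM DTT, DMSO <2%. EDTA stop; phospho and non-phospho peptide separated on LabChip. IC50 from dose-response fit.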
The IC50 is the midpoint of a concentration-inhibition curve. A higher IC50 goes with lower potency. `COc1cccc(Cn2ccn(-c3ccc(-c4cn[nH]c4)c(C)n3)c2=O)c1` [Example 187, 1-(3-methoxy-benzyl)-3-(6-methyl-5-(1H-pyrazol-4-yl)pyridin-2-yl)-1H-imidazol-2(3H)-one] yielded a concentration for half-maximal inhibition (IC50) of 2.1 to 20 nM. On to `COc1ccc(F)cc1CN1CCN(c2ccc(-c3cn[nH]c3)cc2)C1=O` [Example 119, 1-(4-(1H-pyrazol-4-yl)phenyl)-3-(5-fluoro-2-methoxybenzyl)imidazolidin-2-one], for which the IC50 was 20.1 to 200 nM. Compound `COC(=O)C1CN(Cc2cccc(F)c2)C(=O)N1c1ccc(-c2cn[nH]c2)cc1` (centres unmarked) [Example 34, Methyl 3-(4-(1H-pyrazol-4-yl)phenyl)-1-(3-fluorobenzyl)-2-oxoimidazolidine-4-carboxylate] showed a half-inhibitory concentration (IC50) of 20.1 to 200 nM.

`COc1cccc(C(C(=O)NC2CC2)N2CCN(c3ccc(-c4cn[nH]c4)cc3)C2=O)c1` (single isomer, unassigned) [Example 300, 2-(3-(4-(1H-pyrazol-4-yl)phenyl)-2-oxoimidazolidin-1-yl)-N-cyclopropyl-2-(3-methoxyphenyl)acetamide]: the IC50 fell in the range of 20.1 to 200 nM. `COc1nc(-n2ccn(Cc3cc(F)ccc3C)c2=O)ccc1-c1cn[nH]c1` [Example 382, 1-(5-fluoro-2-methylbenzyl)-3-(6-methoxy-5-(1H-pyrazol-4-yl)pyridin-2-yl)-1H-imidazol-2(3H)-one] yielded an IC50 of 2.1 to 20 nM. Compound `COc1cc(F)cc(CN2CCN(c3cc(C)c(-c4cn[nH]c4)cn3)C2=O)c1` [Example 464, 1-(3-fluoro-5-methoxybenzyl)-3-(4-methyl-5-(1H-pyrazol-4-yl)pyridin-2-yl)imidazolidin-2-one] had an IC50 of 20.1 to 200 nM. As to `COc1cccc(CN2CC(CO)N(c3ccc(-c4cn[nH]c4)cc3)C2=O)c1` (single isomer, unassigned; (-)) [Example 47, (−)-3-(4-(1H-Pyrazol-4-yl)phenyl)-4-(hydroxymethyl)-1-(3-methoxybenzyl)imidazolidin-2-one], the IC50 was in the range of 20.1 to 200 nM. Turning to `COc1cc(N2CCN(Cc3ccccc3-c3cn[nH]c3)C2=O)ccc1-c1cn[nH]c1` [Example 31, 1-(2-(1H-Pyrazol-4-yl)benzyl)-3-(3-methoxy-4-(1H-pyrazol-4-yl)phenyl)imidazolidin-2-one, TFA], the half-inhibitory concentration (IC50) fell in the range of 20.1 to 200 nM. With `COc1cccc(C(C)N2C(=O)N(c3ccc(-c4cn[nH]c4)cc3)C[C@@H]2CO)c1` (single isomer, unassigned) [Example 133], the IC50 fell in the range of 20.1 to 200 nM. With `COc1cc(C(C)N2CCN(c3ccc(-c4cn[nH]c4)c(OC)n3)C2=O)ccc1F` (single isomer, unassigned) [Example 231, 1-(1-(4-fluoro-3-methoxyphenyl)ethyl)-3-(6-methoxy-5-(1H-pyrazol-4-yl)pyridin-2-yl)imidazolidin-2-one], the IC50 fell in the range of 20.1 to 200 nM. For `CC(c1cccc(OCC2CC2)c1)n1ccn(-c2ccc(-c3cn[nH]c3)cc2)c1=O` (single isomer, unassigned) [Example 357, 1-(4-(1H-pyrazol-4-yl)phenyl)-3-(1-(3-(cyclopropylmethoxy)phenyl)ethyl)-1H-imidazol-2(3H)-one], the IC50 is 20.1 to 200 nM. As to `COc1ccc(CN2CCN(c3ccc(-c4cn[nH]c4)c(F)c3)C2=O)cc1F` [Example 432, 1-(3-fluoro-4-(1H-pyrazol-4-yl)phenyl)-3-(3-fluoro-4-methoxybenzyl)imidazolidin-2-one], the 50% inhibitory concentration (IC50) lay within 20.1 to 200 nM. Next, `O=C1N(c2ccc(-c3cn[nH]c3)cc2)CC(CO)N1Cc1ccccc1` (centres unmarked) [Example 38, 1-(4-(1H-Pyrazol-4-yl)phenyl)-3-benzyl-4-(hydroxymethyl)imidazolidin-2-one]: 2.1 to 20 nM; `COc1cc(F)cc(C(C)N2CCN(c3ccc(-c4cn[nH]c4)c(C)n3)C2=O)c1` (single isomer, unassigned) [Example 206, 1-(1-(3-fluoro-5-methoxy-phenyl)-ethyl)-3-(6-methyl-5-(1H-pyrazol-4-yl)pyridin-2-yl)-imidazolidin-2-one]: below 2 nM.
